Experimental data: patent publication US20180318311A1, “TRICYCLIC 2-QUINOLINONES AS ANTIBACTERIALS” (priority 2017, published 2018)
Where a name gives a salt, the structure may show the parent alone.

Legend:
Format in all cases: cell-based
[1] = tested on: S. aureus ATCC 49951 (NB01006); experiment: MIC by broth microdilution, S. aureus NB01006; details: Staphylococcus aureus, ATCC49951, CAMHB, 35° C., 20 hours, read-out: Antibacterial activity (MIC) NB01006
Method: (§1) Bacterial isolates were cultivated from −80° C. frozen stocks by overnight passages at 35° C. in ambient air on Mueller-Hinton agar plates (MHA, Becton Dickinson, Franklin Lakes, NB) with the exception of S. pneumoniae which was grown overnight at 35° C. in the presence of 5% CO2 on blood agar plates (tryptic soy agar with 5% sheep blood (Thermo Scientific, Waltham, Mass.) . The following quality control and wild type strains were obtained from the American Type Culture Collection (ATCC; Rockville, Md.) and are coded in the Novartis strain collection as indicated: E. coli ATCC 25922 (NB27001), E. faecalis ATCC 29212 (NB04001), S. aureus ATCC 49951 (NB01006) and S. pneumoniae ATCC […] (NB07001). […] P. aeruginosa NB52019, obtained from Queen's University (Kingston, Ontario, Canada), is the wild-type PAO1 strain.
(§2) Minimal Inhibitory Concentrations (MIC) were determined by the broth microdilution method in accordance with Clinical and Laboratories Institute (CLSI) guidelines. In brief, fresh bacterial overnight cultures were re-suspended in sterile saline, adjusted to a 0.5 McFarland turbidity standard and then diluted to yield a final inoculum of approximately 5×10^5 colony-forming units (CFU)/mL. All bacterial suspensions were prepared in cation adjusted Mueller-Hinton Broth (CAMHB; Becton Dickinson, Franklin Lakes, N.J.;) with the exception of S. pneumoniae which was prepared in CAMHB supplemented with 5% lysed horse blood (Hardy Diagnostics, Santa Maria, Calif.). Two-fold serial dilutions of compounds were prepared in 100% dimethyl sulfoxide (DMSO) at 100-fold the highest final assay concentration; the resulting dilution series of compounds were diluted 1:10 with sterile water. Ten μL of the drug dilution series in 10% DMSO was transferred to microtiter wells and 90 μL of bacterial suspension was inoculated into the wells. All inoculated microdilution trays were incubated in ambient air at 35° C. for 20 hours. Following incubation, assay plates were read in a microtiter plate reader at 600 nm and visually inspected to confirm the MIC endpoint well with the OD value. The lowest concentration of the compound that prevented visible growth was recorded as the MIC (in μg/mL).

[2] = tested on: S. aureus NB01006-AVR005, gyrA (S84L), grlA (580F) and grlB (E471K); experiment: microbe, parasite or virus in culture; details: Staphylococcus aureus, 20 h, read-out: Antibacterial activity (MIC) NB01006-AVR005
Method: as §1, §2

[3] = tested on: S. aureus NB01080 fluoroquinolone-resistant clinical isolate; experiment: MIC by broth microdilution, S. aureus NB01080; details: Staphylococcus aureus, CAMHB, 35° C., 20 hours, read-out: Antibacterial activity (MIC) NB01080
Method: as §1, §2

[4] = tested on: E. faecalis ATCC 29212 (NB04001); experiment: MIC by broth microdilution, E. faecalis NB04001; details: Enterococcus faecalis, ATCC29212, CAMHB, 35° C., 20 hours, read-out: Antibacterial activity (MIC) NB04001
Method: as §1, §2

[5] = tested on: S. pneumoniae ATCC 25922 (NB07001); experiment: MIC by broth microdilution, S. pneumoniae NB07001; details: Streptococcus pneumoniae, ATCC25922, 20 h, read-out: Antibacterial activity (MIC) NB07001
Method: as §1, §2

[6] = tested on: E. coli ATCC 25922 (NB27001); experiment: MIC by broth microdilution, E. coli NB27001; details: Escherichia coli, ATCC25922, CAMHB, 35° C., 20 hours, read-out: Antibacterial activity (MIC) NB27001
Method: as §1, §2

[7] = tested on: P. aeruginosa NB52019, wild-type PAO1 strain; experiment: MIC by broth microdilution, P. aeruginosa NB52019; details: Pseudomonas aeruginosa, CAMHB, 35° C., 20 hours, read-out: Antibacterial activity (MIC) NB52019
Method: as §1, §2

Measured: MIC

C[C@H]1COc2c(N3CC[C@@H](C4(N)CCC4)C3)c(F)c(F)c3cc(C(=O)O)c(=O)n1c23 [Example 13.8, (S)-10-((R)-3-(1-aminocyclobutyl)pyrrolidin-1-yl)-8,9-difluoro-3-methyl-5-oxo-2,3-dihydro-5H-[1,4]oxazino[2,3,4-ij]quinoline-6-carboxylic acid]
1 to 32 µg/mL: [6] | [7]
< 1 µg/mL: all other assays above

COc1cc2cc(C(=O)O)c(=O)n3c2c(c1N1CC[C@@H](C2(N)CC2)C1)OC[C@@H]3C [Example 16, (S)-10-((R)-3-(1-aminocyclopropyl)pyrrolidin-1-yl)-9-methoxy-3-methyl-5-oxo-2,3-dihydro-5H-[1,4]oxazino[2,3,4-ij]liquinoline-6-carboxylic acid formate salt]
1 to 32 µg/mL: [5]
> 32 µg/mL: all other assays above

C[C@H]1COc2c(N3CCNC4(CC3)CC4)c(F)cc3cc(C(=O)O)c(=O)n1c23 [Example 1.55, (S)-9-fluoro-3-methyl-5-oxo-10-(4,7-diazaspiro[2.6]nonan-7-yl)-2,3-dihydro-5H-[1,4]oxazino[2,3,4-ij]quinoline-6-carboxylic acid]
> 32 µg/mL: [2] | [7]
1 to 32 µg/mL: all other assays above

C[C@H]1COc2c(N3CC[C@@H]([C@@H](N)CF)C3)c(F)cc3cc(C(=O)O)c(=O)n1c23 [Example 1.56, (S)-10-((R)-3-((R)-1-amino-2-fluoroethyl)pyrrolidin-1-yl)-9-fluoro-3-methyl-5-oxo-2,3-dihydro-5H-[1,4]oxazino[2,3,4-ij]quinoline-6-carboxylic acid]
1 to 32 µg/mL: [2] | [7]
< 1 µg/mL: all other assays above

C[C@H]1COc2c(N3CC4=C(CNC4)C3)c(F)cc3cc(C(=O)O)c(=O)n1c23 [Example 1.59, (S)-9-fluoro-3-methyl-5-oxo-10-(3,4,5,6-tetrahydropyrrolo[3,4-c]pyrrol-2(1H)-yl)-2,3-dihydro-5H-[1,4]oxazino[2,3,4-ij]quinoline-6-carboxylic acid]
> 32 µg/mL: [2] | [4] | [7]
1 to 32 µg/mL: all other assays above

C[C@H]1COc2c(N3Cc4cccc(F)c4C3)c(F)cc3cc(C(=O)O)c(=O)n1c23 [Example 1.25, (S)-9-fluoro-10-(4-fluoroisoindolin-2-yl)-3-methyl-5-oxo-2,3-dihydro-5H-[1,4]oxazino[2,3,4-ij]quinoline-6-carboxylic acid]
< 1 µg/mL: [1] | [3]
1 to 32 µg/mL: [4] | [5]
> 32 µg/mL: all other assays above

C[C@H]1COc2c(N3CC(CN)C4(CCOCC4)C3)c(F)cc3cc(C(=O)O)c(=O)n1c23 (single isomer, unassigned) [Example 1.48]
1 to 32 µg/mL: [2] | [3]
> 32 µg/mL: [6] | [7]
< 1 µg/mL: all other assays above

C[C@H]1COc2c(N3CCC4(CCCN4C)CC3)c(F)cc3cc(C(=O)O)c(=O)n1c23 [Example 1.57, (S)-9-fluoro-3-methyl-10-(1-methyl-1,8-diazaspiro[4.5]decan-8-yl)-5-oxo-2,3-dihydro-5H-[1,4]oxazino[2,3,4-ij]quinoline-6-carboxylic acid]
1 to 32 µg/mL: [6]
> 32 µg/mL: all other assays above

C[C@H]1COc2c(N3CC4CCC(N)C4C3)c(F)cc3cc(C(=O)O)c(=O)n1c23 (single isomer, unassigned) [Example 1.28]
1 to 32 µg/mL: [1] | [4]
< 1 µg/mL: [5]
> 32 µg/mL: all other assays above
